Data reported in US20040023803A1, “Method for producing a solid herbicide formulation” (priority 2000, published 2004).

Assay: Storage stability test of solid formulations (14 days at 54° C., CIPAC MT 46; active ingredient and AMTT content by quantitative HPLC)
Assay type: physicochemical
Settings: for Preparation Concentration % by weight: zero value before storage; for Storage 14 days, 54° C. active ingredient content (rel.): relative to zero value
Procedure: The solid formulations prepared by the process according to the invention are storage-stable. In accordance with a storage test laid down by the authorization authorities, they are stored for 14 days at 54° C. […] The active ingredient content and the AMTT content of the formulations were each determined by means of quantitative HPLC. […] The samples were then analyzed and compared with the comparative value at the beginning of the storage (zero value). The active ingredient content is shown in each case as relative quantity based on the zero value (as a percentage). The storage experiments were carried out following the method CIPAC MT 46. The shelf life of a product is estimated by short-term storage at elevated temperature.

[1] = Table 2, Example 1 formulation, pH of the suspension 5.1
[2] = Table 2, Example 1 formulation, pH of the suspension 6
[3] = Table 2, Example 1 formulation, pH of the suspension 7
[4] = Table 2, Example 1 formulation, pH of the suspension 8
[5] = Table 2, Example 1 formulation, pH of the suspension 9
[6] = Table 3 (headed Example 3), tritosulfuron + flucarbazone-sodium formulation, pH of the suspension 6.5
[7] = Table 3 (headed Example 3), tritosulfuron + flucarbazone-sodium formulation, pH of the suspension 7.0
[8] = Table 4 (headed Example 4), tritosulfuron + dicamba formulation, pH of the suspension 6
[9] = Table 4 (headed Example 4), tritosulfuron + dicamba formulation, pH of the suspension 7
[10] = Table 4 (headed Example 4), tritosulfuron + dicamba formulation, pH of the suspension 8
[11] = Table 4 (headed Example 4), tritosulfuron + dicamba formulation, pH of the suspension 9

| Structure (SMILES) | Preparation Concentration % by weight [1] [% by weight] | Preparation Concentration % by weight [2] [% by weight] | Preparation Concentration % by weight [3] [% by weight] | Preparation Concentration % by weight [4] [% by weight] | Preparation Concentration % by weight [5] [% by weight] | Preparation Concentration % by weight [6] [% by weight] | Preparation Concentration % by weight [7] [% by weight] | Preparation Concentration % by weight [8] [% by weight] | Preparation Concentration % by weight [9] [% by weight] | Preparation Concentration % by weight [10] [% by weight] | Preparation Concentration % by weight [11] [% by weight] | Storage 14 days, 54° C. active ingredient content (rel.) [8] | Storage 14 days, 54° C. active ingredient content (rel.) [9] | Storage 14 days, 54° C. active ingredient content (rel.) [10] | Storage 14 days, 54° C. active ingredient content (rel.) [11] | Storage 14 days, 54° C. active ingredient content (rel.) [6] | Storage 14 days, 54° C. active ingredient content (rel.) [7] | also measured |
| --- | --- | --- | --- | --- | --- | --- | --- | --- | --- | --- | --- | --- | --- | --- | --- | --- | --- | --- |
| COc1nc(N)nc(C(F)(F)F)n1 [AMTT, 2-amino-4-methoxy-6-trifluoromethyltriazine] | 0.03 | 0.03 | 0.033 | 0.026 | 0.035 | 0.025 | 0.019 | 0.009 | 0.007 | 0.007 | 0.006 | – | – | – | – | – | – | Storage 14 days, 54° C. % by weight (AMTT content) [1]: 0.249 % by weight; Storage 14 days, 54° C. % by weight (AMTT content) [2]: 0.250 % by weight; Storage 14 days, 54° C. % by weight (AMTT content) [3]: 0.178 % by weight; Storage 14 days, 54° C. % by weight (AMTT content) [4]: 0.056 % by weight; Storage 14 days, 54° C. % by weight (AMTT content) [5]: 0.234 % by weight; Storage 14 days, 54° C. % by weight (AMTT content) [6]: 0.164 % by weight; Storage 14 days, 54° C. % by weight (AMTT content) [7]: 0.065 % by weight; Storage 14 days, 54° C. % by weight (AMTT content) [8]: 0.470 % by weight; Storage 14 days, 54° C. % by weight (AMTT content) [9]: 0.011 % by weight; Storage 14 days, 54° C. % by weight (AMTT content) [10]: 0.007 % by weight; Storage 14 days, 54° C. % by weight (AMTT content) [11]: 0.007 % by weight |
| COc1c(Cl)ccc(Cl)c1C(=O)O [dicamba] | – | – | – | – | – | – | – | 60.4 | 58.7 | 58.5 | 58.0 | 100 (rel.) % (rel.) | 100 (rel.) % (rel.) | 100 (rel.) % (rel.) | 101.9 (rel.) % (rel.) | – | – | – |
| COc1nn(C(=O)[N-]S(=O)(=O)c2ccccc2OC(F)(F)F)c(=O)n1C.[Na+] [flucarbazone-sodium] | – | – | – | – | – | 24.1 | 24.3 | – | – | – | – | – | – | – | – | 98.8 (rel.) % (rel.) | 99.5 (rel.) % (rel.) | – |
| COc1nc(NC(=O)NS(=O)(=O)c2ccccc2C(F)(F)F)nc(C(F)(F)F)n1 [tritosulfuron, N[[[4-methoxy-6-(trifluoromethyl)-1,3,5-triazin-2-yl]amino]carbonyl]-2-(trifluoromethyl)benzenesulfonamide] | 74.2 | 72.3 | 71.7 | 67.5 | 72.4 | 40.5 | 41.1 | 11.9 | 11.9 | 11.3 | 10.4 | 91.3 (rel.) % (rel.) | 99.7 (rel.) % (rel.) | 98.8 (rel.) % (rel.) | 102.6 (rel.) % (rel.) | 98.8 (rel.) % (rel.) | 100 (rel.) % (rel.) | Storage 14 days, 54° C. active ingredient content (rel.) [1]: 99.3 (rel.) % (rel.); Storage 14 days, 54° C. active ingredient content (rel.) [2]: 99.9 (rel.) % (rel.); Storage 14 days, 54° C. active ingredient content (rel.) [3]: 100.8 (rel.) % (rel.); Storage 14 days, 54° C. active ingredient content (rel.) [4]: 100.5 (rel.) % (rel.); Storage 14 days, 54° C. active ingredient content (rel.) [5]: 97.7 (rel.) % (rel.) |
